Like-named read-outs stand apart in the source and are kept apart here.
Key:
rat in vitro-BBB model [1] = assay type: cell-based
claudin-5 [2] = assay type: cell-based, rat
ZO-1 [3] = assay type: cell-based, rat
claudin-5 [4] = assay type: cell-based, rat; settings: 2 μM
ZO-1 [5] = assay type: cell-based, rat; settings: 2 μM
rat in vitro-BBB model [6] = tested on: rat in vitro-BBB model
rat in vitro-BBB model [7] = settings: 24 h
mouse brain slices = settings: cited from earlier work
[8] = mouse, in vivo; cited from earlier work

C[As](O)O [MMA^III, monomethylarsonous acid]
%TEER (rat in vitro-BBB model [1]; 0.1 μM, 6 h): 109.7 ± 16.6% | %TEER (rat in vitro-BBB model [1]; 0.1 μM, 24 h): 87.9 ± 13.0% | %TEER (rat in vitro-BBB model [1]; 1 μM, 6 h): 61.6 ± 6.19% | %TEER (rat in vitro-BBB model [1]; 1 μM, 24 h): 45.6 ± 2.09% | %TEER (rat in vitro-BBB model [1]; 2 μM, 6 h): 9.17 ± 4.62% | %TEER (rat in vitro-BBB model [1]; 2 μM, 24 h): 3.31 ± 0.67% | Claudin-5/β-actin (claudin-5 [2]; 0.1 μM, 6 h): 30.5 ± 3.26 | Claudin-5/β-actin ratio for control (claudin-5 [2]; 0.1 μM, 6 h): 0.45 ± 0.19 | Claudin-5/β-actin (claudin-5 [2]; 0.1 μM, 24 h): 34.1 ± 25.6 | Claudin-5/β-actin ratio for control (claudin-5 [2]; 0.1 μM, 24 h): 0.37 ± 0.23 | Claudin-5/β-actin (claudin-5 [2]; 1 μM, 6 h): 25.8 ± 16.7 | Claudin-5/β-actin ratio for control (claudin-5 [2]; 1 μM, 6 h): 0.35 ± 0.16 | Claudin-5/β-actin (claudin-5 [2]; 1 μM, 24 h): 14.5 ± 4.52 | Claudin-5/β-actin ratio for control (claudin-5 [2]; 1 μM, 24 h): 0.16 ± 0.06 | Claudin-5/β-actin (claudin-5 [2]; 2 μM, 6 h): 9.38 ± 5.97 | Claudin-5/β-actin ratio for control (claudin-5 [2]; 2 μM, 6 h): 0.16 ± 0.15 | Claudin-5/β-actin (claudin-5 [2]; 2 μM, 24 h): 4.68 ± 1.30 | Claudin-5/β-actin ratio for control (claudin-5 [2]; 2 μM, 24 h): 0.05 ± 0.02 | ZO-1/β-actin (ZO-1 [3]; 0.1 μM, 6 h): 48.7 ± 25.7 | ZO-1/β-actin ratio for control (ZO-1 [3]; 0.1 μM, 6 h): 0.60 ± 0.25 | ZO-1/β-actin (ZO-1 [3]; 0.1 μM, 24 h): 41.0 ± 24.5 | ZO-1/β-actin ratio for control (ZO-1 [3]; 0.1 μM, 24 h): 0.54 ± 0.33 | ZO-1/β-actin (ZO-1 [3]; 1 μM, 6 h): 44.7 ± 26.2 | ZO-1/β-actin ratio for control (ZO-1 [3]; 1 μM, 6 h): 0.55 ± 0.26 | ZO-1/β-actin (ZO-1 [3]; 1 μM, 24 h): 71.6 ± 15.1 | ZO-1/β-actin ratio for control (ZO-1 [3]; 1 μM, 24 h): 0.93 ± 0.19 | ZO-1/β-actin (ZO-1 [3]; 2 μM, 6 h): 16.6 ± 5.59 | ZO-1/β-actin ratio for control (ZO-1 [3]; 2 μM, 6 h): 0.23 ± 0.15 | ZO-1/β-actin (ZO-1 [3]; 2 μM, 24 h): 28.7 ± 13.3 | ZO-1/β-actin ratio for control (ZO-1 [3]; 2 μM, 24 h): 0.37 ± 0.15 | % Claudin-5 Area for control (claudin-5 [4]; 6 h): 46.6 ± 12.6% | % Claudin-5 Area for control (claudin-5 [4]; 24 h): 37.2 ± 11.4% | % ZO-1 Area for control (ZO-1 [5]; 6 h): 55.0 ± 11.2% | % ZO-1 Area for control (ZO-1 [5]; 24 h): 59.1 ± 9.76% | detection of dimethylarsinous acid as metabolite (rat in vitro-BBB model [6]): no dimethylarsinous acid was detected | fraction oxidized or methylated (converted, detoxified) within the BBB (rat in vitro-BBB model [6]): Approximately 65% | Penetration rate (%) DMA^V (rat in vitro-BBB model [6]; 0–6 h): 4.03±0.52% | Penetration rate (%) MMA^III (rat in vitro-BBB model [6]; 0–6 h): 7.63±0.79% | Penetration rate (%) MMA^V (rat in vitro-BBB model [6]; 0–6 h): 8.27±1.55% | percentage of arsenic in total penetration rate: DMA^V (rat in vitro-BBB model [6]; 0–6 h): (28.5) % | Penetration rate (%) DMA^V (rat in vitro-BBB model [6]; 0–24 h): 9.01±0.14% | Penetration rate (%) MMA^III (rat in vitro-BBB model [6]; 0–24 h): 13.7±5.09% | Penetration rate (%) MMA^V (rat in vitro-BBB model [6]; 0–24 h): 27.9±3.59% | percentage of arsenic in total penetration rate: DMA^V (rat in vitro-BBB model [6]; 0–24 h): (21.4) % | Papp of sodium fluorescein (rat in vitro-BBB model [7]; 0.1 μM): 1.90 ± 0.17 x 10-6 cm2/s | Papp of sodium fluorescein (rat in vitro-BBB model [7]; 1 μM): 2.78 ± 0.28 x 10-6 cm2/s | Na-F values elevated compared to the control group (rat in vitro-BBB model [7]; 2 μM): approximately 16 fold | Papp of sodium fluorescein (rat in vitro-BBB model [7]; 2 μM): 34.0 ± 4.97 x 10-6 cm2/s

O=[As][O-].[Na+] [sodium arsenite]
DMA^V formation in mouse brain slices (mouse brain slices): DMA^V was detected | DMA^V in brain tissue [8]: presence of DMA^V
